# ChEMBL document CHEMBL1201862, “PubChem BioAssay data set” (2004)
# “Also recorded” adds a separate entry of the source. Active and inactive are the calls of the source.
# Assays:
# [1] = viability loss in THP-1 monocytes – THP-1 cells, cytotoxicity control for Vif-APOBEC3G degradation inhibitor project, dose response (AID 1117359); assay type: functional; conditions: THP-1
# [2] = MIN6 cell viability loss – mouse insulinoma, cytotoxicity control, dose response (AID 2122); assay type: functional;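 further: confirmatory high-throughput counterscreen run to flag cytotoxic compounds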
# [3] = viability of PTEN-deleted HCT116 cells – cell-based, HCT116 PTEN knockout, dose response (AID 1047); assay type: functional;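 further: HCT116 colon tumor cells with PTEN knocked out; cells exposed to compound for 60 hours before readout; potency for loss of cell viability measured by luminescence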
# [4] = target: T1, Histone-lysine N-methyltransferase NSD2 (Homo sapiens, UniProt O96028); assay type: biochemical
# T1 sequence (O96028 whole entry): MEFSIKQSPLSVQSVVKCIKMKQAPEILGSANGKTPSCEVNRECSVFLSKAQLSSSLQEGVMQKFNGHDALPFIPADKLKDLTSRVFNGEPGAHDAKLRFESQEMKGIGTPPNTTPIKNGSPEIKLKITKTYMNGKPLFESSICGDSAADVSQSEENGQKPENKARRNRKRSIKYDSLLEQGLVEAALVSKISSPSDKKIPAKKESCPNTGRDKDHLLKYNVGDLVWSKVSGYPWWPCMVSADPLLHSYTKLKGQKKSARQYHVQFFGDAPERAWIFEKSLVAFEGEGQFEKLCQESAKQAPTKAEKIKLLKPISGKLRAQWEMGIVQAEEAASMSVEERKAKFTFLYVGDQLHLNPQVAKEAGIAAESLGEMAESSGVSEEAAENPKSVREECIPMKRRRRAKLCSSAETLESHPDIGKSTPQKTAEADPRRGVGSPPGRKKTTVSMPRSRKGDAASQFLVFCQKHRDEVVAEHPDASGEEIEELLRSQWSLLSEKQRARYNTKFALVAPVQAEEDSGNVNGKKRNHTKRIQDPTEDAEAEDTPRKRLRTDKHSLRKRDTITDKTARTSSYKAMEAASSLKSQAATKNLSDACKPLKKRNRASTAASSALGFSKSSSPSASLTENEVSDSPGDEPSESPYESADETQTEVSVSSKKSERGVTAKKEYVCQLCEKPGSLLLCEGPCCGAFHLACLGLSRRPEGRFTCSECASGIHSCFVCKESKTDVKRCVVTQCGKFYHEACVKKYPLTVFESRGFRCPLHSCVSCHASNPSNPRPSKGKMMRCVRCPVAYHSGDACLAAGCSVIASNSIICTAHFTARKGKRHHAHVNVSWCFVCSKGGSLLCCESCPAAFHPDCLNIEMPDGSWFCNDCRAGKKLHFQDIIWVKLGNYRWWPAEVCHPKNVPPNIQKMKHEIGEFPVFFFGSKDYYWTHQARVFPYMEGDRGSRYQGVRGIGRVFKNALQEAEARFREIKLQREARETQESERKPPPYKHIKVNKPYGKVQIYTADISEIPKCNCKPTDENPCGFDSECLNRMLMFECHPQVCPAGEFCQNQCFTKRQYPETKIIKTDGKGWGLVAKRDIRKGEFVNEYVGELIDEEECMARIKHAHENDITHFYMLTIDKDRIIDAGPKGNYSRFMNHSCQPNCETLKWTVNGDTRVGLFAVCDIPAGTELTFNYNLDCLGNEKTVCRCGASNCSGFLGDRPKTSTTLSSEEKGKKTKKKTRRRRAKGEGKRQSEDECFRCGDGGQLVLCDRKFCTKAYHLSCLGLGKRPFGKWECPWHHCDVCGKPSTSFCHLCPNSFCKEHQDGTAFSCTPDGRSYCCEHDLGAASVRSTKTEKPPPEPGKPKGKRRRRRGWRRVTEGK
# [5] = viability loss in Vero cells – cytotoxicity control for Vif-APOBEC3G degradation inhibitor project, dose response (AID 1117358); assay type: functional; conditions: Vero
# [6] = target: Intestinal-type alkaline phosphatase (Mus musculus, UniProt P24822); assay: PubChem AID 488785; assay type: functional
# [7] = target: T2, Alkaline phosphatase, tissue-nonspecific isozyme (Homo sapiens, UniProt P05186); assay: TNAP enzyme inhibition by screening hits, dose response, selectivity assay for mouse IAP inhibitor project, biochemical, human TNAP, uHTS hits (AID 488906); assay type: functional
# T2 sequence (P05186 whole entry): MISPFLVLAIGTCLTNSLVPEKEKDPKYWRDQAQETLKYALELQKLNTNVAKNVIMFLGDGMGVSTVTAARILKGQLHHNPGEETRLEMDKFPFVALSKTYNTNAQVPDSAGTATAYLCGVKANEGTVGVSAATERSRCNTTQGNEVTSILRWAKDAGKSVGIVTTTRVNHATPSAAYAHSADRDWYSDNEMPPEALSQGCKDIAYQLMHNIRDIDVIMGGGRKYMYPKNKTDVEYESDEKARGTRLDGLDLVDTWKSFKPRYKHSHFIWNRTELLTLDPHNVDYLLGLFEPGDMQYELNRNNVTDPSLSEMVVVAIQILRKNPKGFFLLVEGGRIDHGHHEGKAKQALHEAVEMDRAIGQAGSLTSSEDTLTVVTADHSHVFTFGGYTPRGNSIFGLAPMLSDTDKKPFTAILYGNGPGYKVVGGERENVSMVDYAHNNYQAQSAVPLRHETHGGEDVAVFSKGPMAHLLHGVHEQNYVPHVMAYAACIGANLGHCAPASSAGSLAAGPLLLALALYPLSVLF
# [8] = target: Intestinal-type alkaline phosphatase (Homo sapiens, UniProt P09923); assay: inhibition of human intestinal alkaline phosphatase – biochemical, dose response (AID 488876); assay type: functional
# [9] = HIV-1 Vif–A3G interaction blockers – biochemical, TR-FRET, GST-Vif 1-94, biotin-A3G peptide, dose response retest, primary screen (AID 1117319); assay type: functional;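 further: TR-FRET signal of purified GST-Vif binding a biotinylated A3G peptide; inhibitors lower the FRET signal by blocking Vif and A3G binding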
# [10] = viability of HCT116 lacking mutant beta-catenin – cell-based, human colon tumor, dose response (AID 1045); assay type: functional;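 further: HCT116 colon tumor cells with beta catenin knocked out; cells exposed to compound for 60 hours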
# [11] = decrease of insulin promoter-GFP reporter – imaging, high-content screening, mouse beta cells (AID 1628); assay type: functional; conditions: MIN6
# [12] = suppression of NO production in INS-1E cells – cell-based, Griess absorbance, dry powder, set 3, dose response (AID 488870); assay type: functional; conditions: Rattus norvegicus
# [13] = target: 1-phosphatidylinositol 4,5-bisphosphate phosphodiesterase gamma-1 (Homo sapiens, UniProt P19174); assay: Counterscreen for inhibitors of phospholipase C isozymes (PLC-B3): Fluorescence-based biochemical high throughput dose response assay to identify inhibitors of phospholipase C isozymes (PLC-gamma1).
# [14] = target: NAD-dependent protein deacylase sirtuin-5, mitochondrial (Homo sapiens, UniProt Q9NXA8); assay: sirtuin-5 deacylation blockers, concentration series – biochemical, fluorescence imaging, cherry-pick, set 5, dose response (AID 720591);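 further: desuccinylation of succinyl peptide AMC substrate read as fluorescence after trypsin release; potency of inhibitors that lower fluorescence and may act on trypsin instead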
# [15] = target: 1-phosphatidylinositol 4,5-bisphosphate phosphodiesterase beta-3 (Homo sapiens, UniProt Q01970); assay: Fluorescence-based biochemical high throughput dose response assay to identify inhibitors of phospholipase C isozymes (PLC-B3).
# [16] = target: T3, Small ubiquitin-related modifier 1 (Homo sapiens, UniProt P63165); assay: SUMO1 protein-protein binding blockers, potency – biochemical, FRET, dose response (AID 624383); assay type: functional; conditions: read-out: IC50_Mean
# [17] = target: T4, Apoptotic protease-activating factor 1 (Homo sapiens, UniProt O14727); assay: activation of Apaf-1 mediated apoptosis – fluorescent, uHTS hits, dose response (AID 588554); assay type: functional
# T4 sequence (O14727 whole entry): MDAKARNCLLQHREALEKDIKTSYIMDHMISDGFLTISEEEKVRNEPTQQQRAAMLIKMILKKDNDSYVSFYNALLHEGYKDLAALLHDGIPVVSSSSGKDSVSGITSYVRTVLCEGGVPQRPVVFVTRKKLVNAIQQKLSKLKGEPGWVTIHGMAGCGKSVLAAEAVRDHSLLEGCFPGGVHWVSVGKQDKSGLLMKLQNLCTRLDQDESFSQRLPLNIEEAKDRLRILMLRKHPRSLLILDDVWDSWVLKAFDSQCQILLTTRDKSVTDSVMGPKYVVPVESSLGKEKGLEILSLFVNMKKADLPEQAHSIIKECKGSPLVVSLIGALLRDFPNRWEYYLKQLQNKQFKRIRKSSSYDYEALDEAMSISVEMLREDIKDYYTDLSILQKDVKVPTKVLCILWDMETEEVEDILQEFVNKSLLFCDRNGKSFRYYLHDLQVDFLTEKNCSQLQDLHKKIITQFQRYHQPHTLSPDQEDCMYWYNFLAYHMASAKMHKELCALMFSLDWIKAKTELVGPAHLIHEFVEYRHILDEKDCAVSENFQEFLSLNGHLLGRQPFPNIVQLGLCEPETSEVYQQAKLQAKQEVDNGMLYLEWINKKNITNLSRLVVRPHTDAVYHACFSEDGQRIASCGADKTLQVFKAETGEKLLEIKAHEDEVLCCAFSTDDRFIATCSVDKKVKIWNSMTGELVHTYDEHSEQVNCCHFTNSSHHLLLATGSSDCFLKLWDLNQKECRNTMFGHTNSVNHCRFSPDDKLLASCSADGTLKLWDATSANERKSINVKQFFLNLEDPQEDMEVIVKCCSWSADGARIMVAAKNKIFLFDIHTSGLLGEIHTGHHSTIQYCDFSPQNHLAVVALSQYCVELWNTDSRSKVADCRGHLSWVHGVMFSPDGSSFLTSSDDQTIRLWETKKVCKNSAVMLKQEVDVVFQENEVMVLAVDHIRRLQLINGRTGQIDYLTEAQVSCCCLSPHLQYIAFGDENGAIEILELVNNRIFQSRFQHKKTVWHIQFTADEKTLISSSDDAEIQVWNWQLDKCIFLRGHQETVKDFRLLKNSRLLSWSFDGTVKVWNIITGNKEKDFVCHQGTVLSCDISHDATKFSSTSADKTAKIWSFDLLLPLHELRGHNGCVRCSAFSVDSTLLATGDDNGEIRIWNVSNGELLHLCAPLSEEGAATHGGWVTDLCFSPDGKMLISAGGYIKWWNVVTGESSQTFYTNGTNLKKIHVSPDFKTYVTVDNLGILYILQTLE
# [18] = target: T3, Small ubiquitin-related modifier 1; assay: SUMO1 protein interaction blockers, potency – biochemical, fluorescence polarization, uHTS hits, dose response (AID 624382); assay type: functional; conditions: read-out: IC50_Mean
# Cytochrome P450 2D6 = Cytochrome P450 2D6 (Homo sapiens, UniProt P10635);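 further: CYP2D6 member of a cytochrome P450 panel assay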
# Cytochrome P450 1A2 = target: T5, Cytochrome P450 1A2 (Homo sapiens, UniProt P05177);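 further: PubChem cytochrome P450 panel assay, CYP1A2 panel member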
# T5 sequence (P05177 whole entry): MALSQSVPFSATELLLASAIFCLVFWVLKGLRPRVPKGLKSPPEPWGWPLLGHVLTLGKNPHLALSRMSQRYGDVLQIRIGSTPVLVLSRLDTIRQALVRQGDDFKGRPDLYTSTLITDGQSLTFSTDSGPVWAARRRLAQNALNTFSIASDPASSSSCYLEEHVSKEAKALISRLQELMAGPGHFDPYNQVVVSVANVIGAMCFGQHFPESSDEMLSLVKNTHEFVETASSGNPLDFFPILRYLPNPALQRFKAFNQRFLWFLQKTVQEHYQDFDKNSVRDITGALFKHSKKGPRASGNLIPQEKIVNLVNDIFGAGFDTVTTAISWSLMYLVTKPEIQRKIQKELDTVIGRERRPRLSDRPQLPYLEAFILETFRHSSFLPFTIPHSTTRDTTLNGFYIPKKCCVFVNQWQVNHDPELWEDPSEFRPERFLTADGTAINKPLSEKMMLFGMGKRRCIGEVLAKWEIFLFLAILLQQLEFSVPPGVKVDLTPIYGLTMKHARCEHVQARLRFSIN
# Cytochrome P450 2C19 = Cytochrome P450 2C19 (Homo sapiens, UniProt P33261); assay: Cytochrome panel assay with activity outcomes. Panel member name: p450-cyp2c19 Compounds with AC50 equal or less than 10 uM are considered active; assay type: functional
# Cytochrome P450 2C19, sequence (P33261 whole entry): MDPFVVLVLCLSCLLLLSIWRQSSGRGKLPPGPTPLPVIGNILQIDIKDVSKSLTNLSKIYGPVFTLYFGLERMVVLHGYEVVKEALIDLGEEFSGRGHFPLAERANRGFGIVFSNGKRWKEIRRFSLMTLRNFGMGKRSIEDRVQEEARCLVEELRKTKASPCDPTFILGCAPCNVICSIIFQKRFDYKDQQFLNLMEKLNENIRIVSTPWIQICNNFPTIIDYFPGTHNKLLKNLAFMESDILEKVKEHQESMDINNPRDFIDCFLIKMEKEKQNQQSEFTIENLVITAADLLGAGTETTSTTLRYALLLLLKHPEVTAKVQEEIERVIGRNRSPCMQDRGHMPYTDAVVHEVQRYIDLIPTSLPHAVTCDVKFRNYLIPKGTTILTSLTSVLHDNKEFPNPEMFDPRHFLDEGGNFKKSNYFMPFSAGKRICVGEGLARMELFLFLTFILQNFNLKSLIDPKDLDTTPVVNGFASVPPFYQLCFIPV
# T3 sequence (P63165 whole entry): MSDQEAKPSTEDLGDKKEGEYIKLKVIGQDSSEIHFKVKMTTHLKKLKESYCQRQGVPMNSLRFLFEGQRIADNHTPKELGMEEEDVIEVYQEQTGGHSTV
# Intestinal-type alkaline phosphatase (Mus musculus, UniProt P24822), sequence (P24822 whole entry): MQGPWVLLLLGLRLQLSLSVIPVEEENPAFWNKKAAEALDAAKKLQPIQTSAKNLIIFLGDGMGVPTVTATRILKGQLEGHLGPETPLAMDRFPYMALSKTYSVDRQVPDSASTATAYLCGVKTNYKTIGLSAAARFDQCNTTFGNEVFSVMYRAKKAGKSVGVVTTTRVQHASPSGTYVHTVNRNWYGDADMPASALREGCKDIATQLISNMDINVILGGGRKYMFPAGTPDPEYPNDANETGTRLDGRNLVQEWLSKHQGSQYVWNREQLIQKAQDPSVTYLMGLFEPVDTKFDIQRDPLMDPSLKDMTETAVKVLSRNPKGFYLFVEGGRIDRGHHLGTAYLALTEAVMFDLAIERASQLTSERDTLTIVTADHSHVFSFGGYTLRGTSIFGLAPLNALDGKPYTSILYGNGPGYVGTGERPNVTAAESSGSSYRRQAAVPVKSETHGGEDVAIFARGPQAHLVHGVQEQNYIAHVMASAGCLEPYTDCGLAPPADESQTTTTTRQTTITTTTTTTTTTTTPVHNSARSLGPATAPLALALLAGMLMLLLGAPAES
# NAD-dependent protein deacylase sirtuin-5, mitochondrial, sequence (Q9NXA8 whole entry): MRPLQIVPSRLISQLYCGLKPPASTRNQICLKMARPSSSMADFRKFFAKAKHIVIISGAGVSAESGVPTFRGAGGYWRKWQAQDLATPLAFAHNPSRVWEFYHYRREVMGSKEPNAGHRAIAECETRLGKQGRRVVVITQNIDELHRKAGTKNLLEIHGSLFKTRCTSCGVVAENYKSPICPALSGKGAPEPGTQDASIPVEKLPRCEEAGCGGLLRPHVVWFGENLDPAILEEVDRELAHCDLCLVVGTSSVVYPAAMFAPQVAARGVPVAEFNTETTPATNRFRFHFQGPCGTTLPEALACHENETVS
# 1-phosphatidylinositol 4,5-bisphosphate phosphodiesterase beta-3, sequence (Q01970 whole entry): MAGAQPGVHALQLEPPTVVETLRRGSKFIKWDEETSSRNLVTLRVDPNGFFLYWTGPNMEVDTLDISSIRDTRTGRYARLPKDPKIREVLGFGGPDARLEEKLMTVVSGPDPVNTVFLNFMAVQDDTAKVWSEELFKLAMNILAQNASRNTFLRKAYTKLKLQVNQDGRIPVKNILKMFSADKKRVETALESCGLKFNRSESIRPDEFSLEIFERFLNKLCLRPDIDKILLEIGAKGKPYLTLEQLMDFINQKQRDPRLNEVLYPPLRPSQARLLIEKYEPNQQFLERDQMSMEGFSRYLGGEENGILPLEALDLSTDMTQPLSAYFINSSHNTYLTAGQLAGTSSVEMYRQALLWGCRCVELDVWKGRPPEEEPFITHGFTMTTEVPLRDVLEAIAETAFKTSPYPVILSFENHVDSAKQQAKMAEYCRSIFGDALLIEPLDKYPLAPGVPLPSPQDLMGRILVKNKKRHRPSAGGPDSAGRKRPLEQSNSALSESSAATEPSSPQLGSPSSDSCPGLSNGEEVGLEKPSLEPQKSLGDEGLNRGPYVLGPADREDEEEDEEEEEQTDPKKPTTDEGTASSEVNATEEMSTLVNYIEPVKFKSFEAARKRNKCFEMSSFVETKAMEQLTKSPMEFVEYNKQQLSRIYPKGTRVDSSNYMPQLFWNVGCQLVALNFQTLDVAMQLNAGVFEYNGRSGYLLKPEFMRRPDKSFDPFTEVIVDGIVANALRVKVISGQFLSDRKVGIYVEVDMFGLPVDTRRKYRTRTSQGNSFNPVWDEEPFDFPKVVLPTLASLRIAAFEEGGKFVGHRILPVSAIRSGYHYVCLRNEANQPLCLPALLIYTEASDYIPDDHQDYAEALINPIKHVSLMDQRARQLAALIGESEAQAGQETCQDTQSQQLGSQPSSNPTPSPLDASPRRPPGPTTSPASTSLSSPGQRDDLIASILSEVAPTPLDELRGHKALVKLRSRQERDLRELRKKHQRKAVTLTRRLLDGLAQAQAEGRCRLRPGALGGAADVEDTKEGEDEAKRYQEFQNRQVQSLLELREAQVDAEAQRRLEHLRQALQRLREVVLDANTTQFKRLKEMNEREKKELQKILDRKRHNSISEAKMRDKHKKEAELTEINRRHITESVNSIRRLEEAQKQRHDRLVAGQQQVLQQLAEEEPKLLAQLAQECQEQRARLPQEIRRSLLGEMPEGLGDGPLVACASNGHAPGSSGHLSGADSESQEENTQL
# 1-phosphatidylinositol 4,5-bisphosphate phosphodiesterase gamma-1, sequence (P19174 whole entry): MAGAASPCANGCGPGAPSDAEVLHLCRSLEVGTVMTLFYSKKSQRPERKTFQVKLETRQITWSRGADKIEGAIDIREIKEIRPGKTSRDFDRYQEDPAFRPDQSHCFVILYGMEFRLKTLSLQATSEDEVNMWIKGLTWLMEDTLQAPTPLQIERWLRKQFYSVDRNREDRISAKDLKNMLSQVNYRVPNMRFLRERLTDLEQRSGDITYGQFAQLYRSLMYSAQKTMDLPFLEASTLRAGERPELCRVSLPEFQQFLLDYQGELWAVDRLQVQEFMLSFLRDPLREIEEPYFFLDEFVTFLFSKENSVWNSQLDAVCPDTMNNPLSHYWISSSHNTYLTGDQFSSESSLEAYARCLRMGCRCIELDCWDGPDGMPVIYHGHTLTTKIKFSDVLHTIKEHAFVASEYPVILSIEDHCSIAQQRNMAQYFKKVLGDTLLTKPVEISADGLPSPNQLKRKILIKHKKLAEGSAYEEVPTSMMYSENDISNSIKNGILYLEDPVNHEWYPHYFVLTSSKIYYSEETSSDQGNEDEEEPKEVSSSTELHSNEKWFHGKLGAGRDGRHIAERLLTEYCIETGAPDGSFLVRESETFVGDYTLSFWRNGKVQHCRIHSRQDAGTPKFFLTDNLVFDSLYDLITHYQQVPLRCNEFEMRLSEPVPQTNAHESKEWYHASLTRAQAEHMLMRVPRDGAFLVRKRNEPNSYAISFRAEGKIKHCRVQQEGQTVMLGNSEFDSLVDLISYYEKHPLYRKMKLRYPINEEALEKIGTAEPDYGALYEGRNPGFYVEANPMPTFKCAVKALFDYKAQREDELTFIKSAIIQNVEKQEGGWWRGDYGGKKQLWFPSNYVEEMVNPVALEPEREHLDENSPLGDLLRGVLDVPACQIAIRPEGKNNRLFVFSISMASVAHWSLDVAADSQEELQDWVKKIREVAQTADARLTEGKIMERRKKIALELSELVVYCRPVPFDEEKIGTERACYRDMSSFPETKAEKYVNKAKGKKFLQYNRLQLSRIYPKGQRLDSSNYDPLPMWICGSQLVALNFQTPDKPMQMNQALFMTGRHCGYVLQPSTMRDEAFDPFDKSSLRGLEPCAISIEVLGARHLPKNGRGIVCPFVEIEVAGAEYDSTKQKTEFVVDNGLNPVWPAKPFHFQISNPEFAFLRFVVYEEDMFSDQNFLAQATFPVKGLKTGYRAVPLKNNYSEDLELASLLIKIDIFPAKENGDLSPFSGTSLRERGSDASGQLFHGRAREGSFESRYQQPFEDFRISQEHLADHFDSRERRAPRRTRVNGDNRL
# Cytochrome P450 2D6, sequence (P10635 whole entry): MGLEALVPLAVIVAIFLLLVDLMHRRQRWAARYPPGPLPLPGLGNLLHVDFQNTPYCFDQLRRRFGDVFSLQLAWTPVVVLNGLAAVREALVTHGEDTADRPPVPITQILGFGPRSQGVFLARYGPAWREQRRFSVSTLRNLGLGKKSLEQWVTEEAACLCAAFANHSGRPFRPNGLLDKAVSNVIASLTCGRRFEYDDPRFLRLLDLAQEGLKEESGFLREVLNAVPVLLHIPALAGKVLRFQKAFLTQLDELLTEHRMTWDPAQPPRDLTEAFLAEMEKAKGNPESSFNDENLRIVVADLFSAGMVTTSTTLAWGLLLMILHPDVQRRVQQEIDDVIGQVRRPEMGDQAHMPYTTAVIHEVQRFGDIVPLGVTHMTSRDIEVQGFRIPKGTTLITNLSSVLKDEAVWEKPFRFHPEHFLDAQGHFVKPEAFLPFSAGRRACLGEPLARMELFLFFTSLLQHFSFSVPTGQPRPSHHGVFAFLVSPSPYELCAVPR
# Intestinal-type alkaline phosphatase (Homo sapiens, UniProt P09923), sequence (P09923 whole entry): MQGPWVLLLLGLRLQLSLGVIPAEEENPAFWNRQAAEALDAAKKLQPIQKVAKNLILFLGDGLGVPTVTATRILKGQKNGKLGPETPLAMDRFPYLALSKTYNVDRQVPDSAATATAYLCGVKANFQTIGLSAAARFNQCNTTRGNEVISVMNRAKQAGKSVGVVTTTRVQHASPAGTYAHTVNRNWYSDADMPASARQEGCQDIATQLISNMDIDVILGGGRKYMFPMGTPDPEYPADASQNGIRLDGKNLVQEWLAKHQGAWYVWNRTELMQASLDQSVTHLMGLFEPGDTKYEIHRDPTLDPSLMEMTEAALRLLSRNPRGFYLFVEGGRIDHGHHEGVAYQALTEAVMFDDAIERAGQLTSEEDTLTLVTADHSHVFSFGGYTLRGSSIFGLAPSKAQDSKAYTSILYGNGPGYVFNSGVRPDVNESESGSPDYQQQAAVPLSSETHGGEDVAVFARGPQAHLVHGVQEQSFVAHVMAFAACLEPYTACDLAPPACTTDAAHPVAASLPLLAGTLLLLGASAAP
smiles,measurement,setting,value
Cc1cccnc1Nc1nc(-c2ccc(O)c(O)c2)cs1,CC50,[1],21.2 µM (active)
same,IC50,[2],9.5 µM (active)
same,EC50,[3],13.3 µM (active)
same,AC50,[4],> 20 µM (inactive)
same,CC50,[5],> 40 µM (active)
same,IC50,[6],4.03 µM (active)
same,IC50,[7],> 100 µM (inactive)
same,IC50,[8],> 100 µM (inactive)
same,IC50,[9],> 51.1 µM (active)
same,EC50,[10],13.6 µM (active)
same,IC50,[11],8.95 µM (active)
C[C@@H]1CN([C@@H](C)CO)C(=O)c2cccc(NC(=O)Nc3cccc4ccccc34)c2O[C@H]1CN(C)C(=O)Nc1ccc(C(F)(F)F)cc1,AC50,[12],40.7 µM (active)
C=CC1=C(C(=O)O)N2C(=O)[C@@H](NC(=O)/C(=N\OCC(=O)O)c3csc(N)n3)[C@H]2SC1 [CEFIXIME],IC50,[13],1.21 µM (active)
same,AC50,[14],17.9 µM (active)
same,IC50,[15],> 122 µM (inactive)
same,IC50,[16],1.48 µM (active)
same,EC50,[17],9.08 µM (active)
same,IC50,[18],> 66.6 µM (inactive)
Nc1ccc(S(=O)(=O)Nc2ccnn2-c2ccccc2)cc1 [SULFAPHENAZOLE],AC50,Cytochrome P450 2D6,inactive
same,AC50,Cytochrome P450 1A2,inactive
same,AC50,Cytochrome P450 2C19,inactive; also recorded: inconclusive
